Data from patent publication US9040509B2, “Method of treating human skin and a skin care composition for use in such a method” (Pantarhei Bioscience B.V., priority 2002, dated 2015).
Like-named read-outs stand apart in the source and are kept apart here.

Key:
human ERβ = human ERβ (Homo sapiens (Human), UniProt Q92731); experiment: Competitive steroid binding assay, recombinant human ERβ, [3H]E2 as labeled ligand; details: Cheng and Prusoff from measured IC50
uterus = details: continuous administration from a subcutaneous depot; Martucci et al., 1977; cited from earlier work
immature rat uterus = details: subcutaneously administered, Holinka et al., cited from earlier work
[1] = tested on: human breast cancer cells (MCF-7); details: MCF-7, long term tissue culture; cited from earlier work
[2] = Elimination half-life after single subcutaneous administration in rats; assay type: in vivo; details: female, Sprague Dawley, rat; single sc dose 0.05, 0.5 or 5 mg/kg in arachidis oil; plasma
Procedure: To determine the in vivo stability of estetrol (E4) its elimination half-life in female Sprague Dawley rats was determined after a single subcutaneous administration (sc) at several dose levels.
Female Sprague Dawley rats were equipped with a permanent silatic heart catheter, as described by Kuipers et al. (1985, Gastroenterology, 88, 403-411). Rats were allowed to recover from surgery for 5 days and were than administered 0.05, 0.5, or 5 mg/kg E4 in 0.5 ml arachidis oil. E4 was injected in the neck area using a 1 ml syringe and 20 g needle. Blood samples were subsequently collected via the heart catheter in heparinized tubes at 0.5, 1, 2, 4, 8 and 24 hours. Erythrocytes were removed by centrifugation at 5000×g for 10 minutes at 4° C. and blood plasma was stored at −20° C. […] With each sample batch, a calibration curve with 6 calibrators was recorded. The calibration curve was calculated using linear regression (correlation coefficient>0.98), which permitted quantitation of plasma concentrations. […]
Plasma E4 concentration data were analysed with “WinNonLin, edition 3.1” and involved pharmacokinetic parameters for Cmax, AUC0-24 and half-life.

[3] = tested on: estrogen receptor in the human endometrium; details: Tseng et al., cited from earlier work
[4] = intravenous, two adult women, cited from earlier work
[5] = tested on: rat uterine nuclear estrogen receptor; details: cited from earlier work
human ERα = human ERα (Homo sapiens (Human), UniProt P03372); experiment: Competitive steroid binding assay, recombinant human ERα, [3H]E2 as labeled ligand; details: Cheng and Prusoff from measured IC50
uterine vasodilation = details: intravenously administered; cited from earlier work
[6] = tested on: rat uterine cytosol estrogen receptor; details: cited from earlier work

Sequence of human ERα (P03372 whole entry): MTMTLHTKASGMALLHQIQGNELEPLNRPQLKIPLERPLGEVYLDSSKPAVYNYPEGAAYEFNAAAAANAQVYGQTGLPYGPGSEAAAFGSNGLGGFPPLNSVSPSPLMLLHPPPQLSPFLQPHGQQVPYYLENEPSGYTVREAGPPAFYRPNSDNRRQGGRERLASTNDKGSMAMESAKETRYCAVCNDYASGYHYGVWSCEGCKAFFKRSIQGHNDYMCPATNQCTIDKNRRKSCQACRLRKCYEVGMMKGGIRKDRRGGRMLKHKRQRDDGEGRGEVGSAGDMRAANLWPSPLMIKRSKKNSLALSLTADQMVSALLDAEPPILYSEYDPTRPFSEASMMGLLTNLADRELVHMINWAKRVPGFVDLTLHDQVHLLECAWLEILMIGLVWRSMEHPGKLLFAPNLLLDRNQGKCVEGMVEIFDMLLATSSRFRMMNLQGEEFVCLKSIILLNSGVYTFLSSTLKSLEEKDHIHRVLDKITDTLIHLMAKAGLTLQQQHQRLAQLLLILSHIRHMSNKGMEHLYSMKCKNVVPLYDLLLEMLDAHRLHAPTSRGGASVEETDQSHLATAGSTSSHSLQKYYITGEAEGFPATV
Sequence of human ERβ (Q92731 whole entry): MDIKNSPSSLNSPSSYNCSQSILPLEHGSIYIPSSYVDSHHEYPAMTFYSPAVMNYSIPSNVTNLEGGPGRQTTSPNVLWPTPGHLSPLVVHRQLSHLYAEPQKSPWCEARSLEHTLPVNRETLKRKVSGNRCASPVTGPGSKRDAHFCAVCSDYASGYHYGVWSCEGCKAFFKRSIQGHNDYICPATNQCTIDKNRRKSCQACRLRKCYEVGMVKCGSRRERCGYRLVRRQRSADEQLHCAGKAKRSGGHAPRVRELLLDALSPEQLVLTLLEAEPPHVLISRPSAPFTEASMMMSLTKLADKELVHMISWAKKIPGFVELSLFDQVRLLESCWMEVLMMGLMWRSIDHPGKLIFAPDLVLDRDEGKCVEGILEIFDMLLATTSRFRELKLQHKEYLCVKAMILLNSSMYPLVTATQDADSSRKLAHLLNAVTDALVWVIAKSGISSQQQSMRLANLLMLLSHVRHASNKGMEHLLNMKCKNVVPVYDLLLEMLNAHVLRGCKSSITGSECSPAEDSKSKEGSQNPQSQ

## C[C@]12CC[C@@H]3c4ccc(O)cc4CC[C@H]3[C@@H]1[C@@H](O)[C@@H](O)[C@@H]2O [E4, 1,3,5 (10)-estratrien-3,15α,16α,17β-tetrol]
Human ERβ
  Ki: 19 nM
uterus
  uterotrophic activity: very weak uterotrophic activity
Immature rat uterus; 1979
  uterotrophic activity: very weak uterotrophic activity
Immature rat uterus; 1980
  uterotrophic activity: very weak uterotrophic activity
[1]
  agonistic potency in in vitro cell proliferation relative to 17β-estradiol: 2%
[2]
  half-life: 2 to 3 h
[3]; 1976
  relative binding constant compared to 17β-estradiol (100%): 6.25%
[3]; 1978
  relative binding to estrogen receptors, of 17β-estradiol: 1.5%
[4]; urine
  excretion: rapidly and completely excreted in urine as the glucosiduronate
[4]
  metabolism: virtually no metabolism except for conjugation took place
[5]
  relative binding affinity, of 17β-estradiol (100%): 0.3%
Human ERα
  Ki: 4.9 nM
Uterine vasodilation
  potency in uterine vasodilation, times less potent than estriol and 17β-estradiol: 15 to 30 times
[6]
  relative binding affinity, of 17β-estradiol (100%): 0.5%
